# Test results published in patent publication US6737383B1, “Herbicidal oxadiazolidines” (priority 1999, dated 2004).
# How the values were obtained:
# sugar beet = test: Test B pre/postemergence sugar beet; type: in vivo, Beta vulgaris
# In short: (§1)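 Response is a visual 0-to-10 score relative to untreated plants, where 0 means no effect and 10 means complete control, taken twelve to sixteen days after application. Treatments went onto soil at planting and onto foliage of 1- to 4-leaf plants, using a surfactant-containing non-phytotoxic solvent.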
# duck salad = test: Test B flood test duck salad; type: in vivo, Heteranthera limosa
# In short: (§2)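 Each value is a visual injury score relative to controls, with 10 meaning complete control and 0 no effect. Evaluation took place twelve to sixteen days after the 2-leaf-stage plants were treated and kept in the greenhouse.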
# purple nutsedge = test: Test B pre/postemergence purple nutsedge; type: in vivo, Cyperus rotundus
# In short: as §1
# velvetleaf = test: Test B pre/postemergence velvetleaf; type: in vivo, Abutilon theophrasti
# In short: as §1
# morningglory = test: Test B pre/postemergence morningglory; type: in vivo, Ipomoea hederacea
# In short: as §1
# pigweed = test: Test B pre/postemergence pigweed; type: in vivo, Amaranthus retroflexus
# In short: as §1
# bamyardgrass = test: Test B flood test barnyardgrass; type: in vivo, Echinochloa crus-galli
# In short: as §2
# wild oat = test: Test B pre/postemergence wild oat; type: in vivo, Avena fatua
# In short: as §1
# cocklebur = test: Test B pre/postemergence cocklebur; type: in vivo, Xanthium strumarium
# In short: as §1
# corn = test: Test B pre/postemergence corn; type: in vivo, Zea mays
# In short: as §1
# surinam grass = test: Test B pre/postemergence surinam grass; type: in vivo, Brachiaria decumbens
# In short: as §1
# rape = test: Test B pre/postemergence rape; type: in vivo, Brassica napus
# In short: as §1
# smallflower flatsedge = test: Test B flood test smallflower flatsedge; type: in vivo, Cyperus difformis
# In short: as §2
# soybean = test: Test B pre/postemergence soybean; type: in vivo, Glycine max
# In short: as §1
# giant foxtail = test: Test B pre/postemergence giant foxtail; type: in vivo, Setaria faberii
# In short: as §1
# crabgrass = test: Test B pre/postemergence crabgrass; type: in vivo, Digitaria sanguinalis
# In short: as §1
# blackgrass = test: Test B pre/postemergence blackgrass; type: in vivo, Alopecurus myosuroides
# In short: as §1
# rice = test: Test B flood test rice; type: in vivo, Oryza sativa
# In short: as §2
# wheat = test: Test B pre/postemergence wheat; type: in vivo, Triticum aestivum
# In short: as §1
# [1] = Postemergence, Rate 31 g/ha, visual rating, scale 0 to 10 (0 no effect, 10 complete control)
# [2] = Postemergence, Rate 62 g/ha, scale 0 to 10, 0 is no effect, 10 is complete control
# [3] = Postemergence, Rate 125 g/ha, scale of 0 to 10 where 0 is no effect and 10 is complete control
# [4] = Preemergence, Rate 62 g/ha, scale of 0 to 10 where 0 is no effect and 10 is complete control
# [5] = Preemergence, Rate 125 g/ha, scale of 0 to 10 where 0 is no effect and 10 is complete control
# [6] = Preemergence, Rate 250 g/ha, scale 0 to 10 (0 no effect, 10 complete control)
# [7] = Rate 31 g/ha, Pre-emergence section (flood test species), scale 0 to 10
# [8] = Rate 62 g/ha, flood test species, Pre-emergence, visual evaluation after twelve to sixteen days
# [9] = Rate 125 g/ha, under heading Pre-emergence, flood test species, visual evaluation after twelve to sixteen days
# [10] = Rate 250 g/ha, Pre-emergence (flood test species), scale 0 to 10, 0 is no effect, 10 is complete control
# [11] = Postemergence, Rate 250 g/ha, scale of 0 to 10, 0 is no effect, 10 is complete control
# [12] = Preemergence, Rate 31 g/ha, visual rating, scale 0 to 10 (0 no effect, 10 complete control)
structure (smiles),measurement,setting,value
CC(C)N(C(=O)n1oc(=O)n(CCC2=NOCCC2)c1=O)c1ccc(F)cc1 [Compound 656],Sugarbeets plant response rating,sugar beet; [1],0
same,"Plant response rating, Sugarbeets",sugar beet; [2],0
same,Sugarbeets plant response rating,sugar beet; [3],0
same,Sugarbeets plant response rating,sugar beet; [4],0
same,Sugarbeets plant response rating,sugar beet; [5],0
same,"Plant response rating, Sugarbeets",sugar beet; [6],3
same,Ducksalad plant response rating,duck salad; [7],0
same,"Plant response rating, Ducksalad (0 to 10 scale, 0 is no effect, 10 is complete control)",duck salad; [8],0
same,"Ducksalad plant response rating (0 to 10 scale, 0 is no effect, 10 is complete control)",duck salad; [9],0
same,Ducksalad plant response rating,duck salad; [10],0
same,Nutsedge plant response rating,purple nutsedge; [1],0
same,"Plant response rating, Nutsedge",purple nutsedge; [2],0
same,Nutsedge plant response rating,purple nutsedge; [3],0
same,Nutsedge plant response rating,purple nutsedge; [4],0
same,Nutsedge plant response rating,purple nutsedge; [5],0
same,"Plant response rating, Nutsedge",purple nutsedge; [6],0
same,Velvetleaf plant response rating,velvetleaf; [1],0
same,"Plant response rating, Velvetleaf",velvetleaf; [2],0
same,Velvetleaf plant response rating,velvetleaf; [3],0
same,Velvetleaf plant response rating,velvetleaf; [4],2
same,Velvetleaf plant response rating,velvetleaf; [5],4
same,"Plant response rating, Velvetleaf",velvetleaf; [6],6
same,Morningglory plant response rating,morningglory; [1],0
same,"Plant response rating, Morningglory",morningglory; [2],1
same,Morningglory plant response rating,morningglory; [3],2
same,Morningglory plant response rating,morningglory; [11],2
same,Morningglory plant response rating,morningglory; [4],0
same,Morningglory plant response rating,morningglory; [5],0
same,"Plant response rating, Morningglory",morningglory; [6],0
same,Redroot pigweed plant response rating,pigweed; [1],0
same,"Plant response rating, Redroot pigweed",pigweed; [2],0
same,Redroot pigweed plant response rating,pigweed; [3],0
same,Redroot pigweed plant response rating,pigweed; [4],0
same,Redroot pigweed plant response rating,pigweed; [5],4
same,"Plant response rating, Redroot pigweed",pigweed; [6],6
same,Barnyardgrass plant response rating,bamyardgrass; [7],0
same,"Plant response rating, Barnyardgrass (0 to 10 scale, 0 is no effect, 10 is complete control)",bamyardgrass; [8],0
same,"Barnyardgrass plant response rating (0 to 10 scale, 0 is no effect, 10 is complete control)",bamyardgrass; [9],0
same,Barnyardgrass plant response rating,bamyardgrass; [10],0
same,Wild oats plant response rating,wild oat; [1],0
same,"Plant response rating, Wild oats",wild oat; [2],0
same,Wild oats plant response rating,wild oat; [3],0
same,Wild oats plant response rating,wild oat; [4],0
same,Wild oats plant response rating,wild oat; [5],0
same,"Plant response rating, Wild oats",wild oat; [6],6
same,Cocklebur plant response rating,cocklebur; [1],0
same,"Plant response rating, Cocklebur",cocklebur; [2],0
same,Cocklebur plant response rating,cocklebur; [3],0
same,Cocklebur plant response rating,cocklebur; [11],0
same,Cocklebur plant response rating,cocklebur; [12],0
same,Cocklebur plant response rating,cocklebur; [4],0
same,Cocklebur plant response rating,cocklebur; [5],0
same,"Plant response rating, Cocklebur",cocklebur; [6],0
same,Corn plant response rating,corn; [1],0
same,"Plant response rating, Corn",corn; [2],0
same,Corn plant response rating,corn; [3],0
same,Corn plant response rating,corn; [11],0
same,Corn plant response rating,corn; [12],0
same,Corn plant response rating,corn; [4],0
same,Corn plant response rating,corn; [5],0
same,"Plant response rating, Corn",corn; [6],0
same,B. signalgrass plant response rating,surinam grass; [1],0
same,"Plant response rating, B. signalgrass",surinam grass; [2],0
same,"Plant response rating, B. signalgrass",surinam grass; [3],2
same,B. signalgrass plant response rating,surinam grass; [11],5
same,B. signalgrass plant response rating,surinam grass; [12],0
same,B. signalgrass plant response rating,surinam grass; [4],0
same,B. signalgrass plant response rating,surinam grass; [5],2
same,"Plant response rating, B. signalgrass",surinam grass; [6],6
same,Rape plant response rating,rape; [1],0
same,"Plant response rating, Rape",rape; [2],0
same,Rape plant response rating,rape; [3],0
same,Rape plant response rating,rape; [4],0
same,Rape plant response rating,rape; [5],0
same,"Plant response rating, Rape",rape; [6],0
same,S. Flatsedge plant response rating,smallflower flatsedge; [7],0
same,"Plant response rating, S. Flatsedge (0 to 10 scale, 0 is no effect, 10 is complete control)",smallflower flatsedge; [8],0
same,"S. Flatsedge plant response rating (0 to 10 scale, 0 is no effect, 10 is complete control)",smallflower flatsedge; [9],0
same,S. Flatsedge plant response rating,smallflower flatsedge; [10],0
same,Soybean plant response rating,soybean; [1],1
same,"Plant response rating, Soybean",soybean; [2],2
same,Soybean plant response rating,soybean; [3],2
same,Soybean plant response rating,soybean; [4],0
same,Soybean plant response rating,soybean; [5],0
same,"Plant response rating, Soybean",soybean; [6],0
same,Giant foxtail plant response rating,giant foxtail; [1],0
same,"Plant response rating, Giant foxtail",giant foxtail; [2],3
same,Giant foxtail plant response rating,giant foxtail; [3],9
same,Giant foxtail plant response rating,giant foxtail; [11],9
same,Giant foxtail plant response rating,giant foxtail; [12],4
same,Giant foxtail plant response rating,giant foxtail; [4],4
same,Giant foxtail plant response rating,giant foxtail; [5],10
same,"Plant response rating, Giant foxtail",giant foxtail; [6],10
same,Crabgrass plant response rating,crabgrass; [1],0
same,"Plant response rating, Crabgrass",crabgrass; [2],0
same,Crabgrass plant response rating,crabgrass; [3],0
same,Crabgrass plant response rating,crabgrass; [11],8
same,Crabgrass plant response rating,crabgrass; [12],6
same,Crabgrass plant response rating,crabgrass; [4],7
same,Crabgrass plant response rating,crabgrass; [5],7
same,"Plant response rating, Crabgrass",crabgrass; [6],8
same,Blackgrass plant response rating,blackgrass; [1],6
same,"Plant response rating, Blackgrass",blackgrass; [2],6
same,Blackgrass plant response rating,blackgrass; [3],7
same,Blackgrass plant response rating,blackgrass; [11],9
same,Blackgrass plant response rating,blackgrass; [12],2
same,Blackgrass plant response rating,blackgrass; [4],4
same,Blackgrass plant response rating,blackgrass; [5],4
same,"Plant response rating, Blackgrass",blackgrass; [6],5
same,Rice plant response rating,rice; [7],0
same,"Plant response rating, Rice (0 to 10 scale, 0 is no effect, 10 is complete control)",rice; [8],0
same,"Rice plant response rating (0 to 10 scale, 0 is no effect, 10 is complete control)",rice; [9],0
same,Rice plant response rating,rice; [10],0
same,Wheat plant response rating,wheat; [1],0
same,"Plant response rating, Wheat",wheat; [2],0
same,Wheat plant response rating,wheat; [3],0
same,Wheat plant response rating,wheat; [4],0
same,Wheat plant response rating,wheat; [5],0
same,"Plant response rating, Wheat",wheat; [6],0
